{"source": "patent US20250145633A1", "about": "“SUBSTITUTED FURANOPYRIMIDINE COMPOUNDS AS PDE1 INHIBITORS” (Dart NeuroScience, LLC, priority 2017, published 2025)", "biological_target": "human PDE1B enzyme (Homo sapiens (Human), UniProt Q01064)", "test": "IMAP TR-FRET PDE1B enzymatic assay", "format": "biochemical", "procedure,_shortened": "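Full-length GST-tagged human PDE1B (250 pg/well) in IMAP BSA buffer with 10 U/ml calmodulin and 2.5 mM CaCl2; compound pre-incubated 5 min at room temperature, then 200 nM (final) FAM-cAMP for 30 min. IMAP binding reagent/Tb added, 1 h; TR-FRET 520/490 ratio read. IC50 from sigmoidal dose-response fit.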", "key": {"[1]": {"conditions": "negative log of half-maximal molar inhibitory concentration, 200 nM FAM-cAMP, values given as bins, read-out: PDE1b (pIC50) (converted)"}, "[2]": {"conditions": "negative log of half-maximal molar inhibitory concentration, 200 nM FAM-cAMP, values given as bins"}}, "note": "Read-outs that look alike come from different tables or passages of the source."}
{"compound": "Cc1ccc(Cl)c(NC(=O)c2c(C)oc3ncnc(NC4(C)CC4)c23)c1", "note": "[Example 256, N-(2-Chloro-5-methylphenyl)-6-methyl-4-[(1-methylcyclopropyl)amino]furo[2,3-d]pyrimidine-5-carboxamide]", "values": [{"measurement": "IC50", "setting": "[1]", "value": "10 to 100", "unit": "nM"}]}
{"compound": "COCCN1CCN(C(=O)c2c(C)oc3ncnc(NC4(C)CC4)c23)CC1", "note": "[Example 260, 5-[4-(2-Methoxyethyl)piperazine-1-carbonyl]-6-methyl-N-(1-methylcyclopropyl)furo[2,3-d]pyrimidin-4-amine]", "values": [{"measurement": "IC50", "setting": "[1]", "value": "100 to 1000", "unit": "nM"}]}
{"compound": "Cc1oc2ncnc(NC3(C)CC3)c2c1C(=O)Nc1ccc2c(cnn2C)c1", "note": "[Example 262, 6-Methyl-N-(1-methyl-1H-indazol-5-yl)-4-[(1-methylcyclopropyl)amino]furo[2,3-d]pyrimidine-5-carboxamide]", "values": [{"measurement": "IC50", "setting": "[1]", "value": "10 to 100", "unit": "nM"}]}
{"compound": "Cc1oc2ncnc(NC3(C)CC3)c2c1C(=O)Nc1ccc2scnc2c1", "note": "[Example 263, N-(1,3-Benzothiazol-5-yl)-6-methyl-4-[(1-methylcyclopropyl)amino]furo[2,3-d]pyrimidine-5-carboxamide]", "values": [{"measurement": "IC50", "setting": "[1]", "value": "10 to 100", "unit": "nM"}]}
{"compound": "Cc1oc2ncnc(NC3(C)CC3)c2c1C(=O)N(C)Cc1cc(C2CC2)[nH]n1", "note": "[Example 265, N-[(5-Cyclopropyl-1H-pyrazol-3-yl)methyl]-N,6-dimethyl-4-[(1-methylcyclopropyl)amino]furo[2,3-d]pyrimidine-5-carboxamide]", "values": [{"measurement": "IC50", "setting": "[1]", "value": "10 to 100", "unit": "nM"}]}
{"compound": "Cc1oc2ncnc(NC3(C)CC3)c2c1C(=O)NCc1ccc(OC(F)F)cc1", "note": "[Example 267, N-{[4-(Difluoromethoxy)phenyl]methyl}-6-methyl-4-[(1-methylcyclopropyl)amino]furo[2,3-d]pyrimidine-5-carboxamide]", "values": [{"measurement": "PDE1b (pIC50)", "setting": "[2]", "value": ">8"}]}
{"compound": "Cc1oc2ncnc(NC3(C)CC3)c2c1C(=O)N1CCn2ccnc2C1", "note": "[Example 269, 5-{5H,6H,7H,8H-Imidazo[1,2-a]pyrazine-7-carbonyl}-6-methyl-N-(1-methylcyclopropyl)furo[2,3-d]pyrimidin-4-amine]", "values": [{"measurement": "IC50", "setting": "[1]", "value": "10 to 100", "unit": "nM"}]}
{"compound": "Cc1oc2ncnc(NC3(C)CC3)c2c1C(=O)NC12CC3CC(CC(C3)C1)C2", "note": "[Example 270, N-(Adamantan-1-yl)-6-methyl-4-[(1-methylcyclopropyl)amino]furo[2,3-d]pyrimidine-5-carboxamide]", "values": [{"measurement": "IC50", "setting": "[1]", "value": "< 10", "unit": "nM"}]}
{"compound": "Cc1oc2ncnc(NC3(C)CC3)c2c1C(=O)N1CCc2sccc2C1", "note": "[Example 273, 6-Methyl-N-(1-methylcyclopropyl)-5-{4H,5H,6H,7H-thieno[3,2-c]pyridine-5-carbonyl}furo[2,3-d]pyrimidin-4-amine]", "values": [{"measurement": "IC50", "setting": "[1]", "value": "10 to 100", "unit": "nM"}]}
{"compound": "Cc1oc2ncnc(NC3(C)CC3)c2c1C(=O)N1CCC(C#N)(c2ccccc2)CC1", "note": "[Example 274, 1-{6-Methyl-4-[(1-methylcyclopropyl)amino]furo[2,3-d]pyrimidine-5-carbonyl}-4-phenylpiperidine-4-carbonitrile]", "values": [{"measurement": "IC50", "value": "10 to 100", "unit": "nM"}]}
{"compound": "CCOCC1(CNC(=O)c2c(C)oc3ncnc(NC4(C)CC4)c23)CC1", "note": "[Example 275, N-{[1-(Ethoxymethyl)cyclopropyl]methyl}-6-methyl-4-[(1-methylcyclopropyl)amino]furo[2,3-d]pyrimidine-5-carboxamide]", "values": [{"measurement": "IC50", "setting": "[1]", "value": "10 to 100", "unit": "nM"}]}
{"compound": "Cc1oc2ncnc(NC3(C)CC3)c2c1C(=O)N1CC2C(C1)C2(C)C", "note": "(stereo not drawn) [Example 278, 5-{6,6-Dimethyl-3-azabicyclo[3.1.0]hexane-3-carbonyl}-6-methyl-(1-methylcyclopropyl)furo[2,3-d]pyrimidin-4-amine]", "values": [{"measurement": "IC50", "setting": "[1]", "value": "10 to 100", "unit": "nM"}]}
{"compound": "Cc1oc2ncnc(NC3(C)CC3)c2c1C(=O)N1C[C@@H]2[C@H](C1)[C@H]2c1ccc(F)cc1", "note": "[Example 279, 5-[(1R,5S,6S)-6-(4-Fluorophenyl)-3-azabicyclo[3.1.0]hexane-3-carbonyl]-6-methyl-N-(1-methylcyclopropyl)furo[2,3-d]pyrimidin-4-amine]", "values": [{"measurement": "IC50", "setting": "[1]", "value": "10 to 100", "unit": "nM"}]}
{"compound": "Cc1oc2ncnc(NC3(C)CC3)c2c1C(=O)NCc1cccc(F)n1", "note": "[Example 280, N-[(6-Fluoropyridin-2-yl)methyl]-6-methyl-4-[(1-methylcyclopropyl)amino]furo[2,3-d]pyrimidine-5-carboxamide]", "values": [{"measurement": "IC50", "setting": "[1]", "value": "10 to 100", "unit": "nM"}]}
{"compound": "Cc1oc2ncnc(NC3(C)CC3)c2c1C(=O)NC1(c2ccc(F)cn2)CC1", "note": "[Example 281, N-[1-(5-Fluoropyridin-2-yl)cyclopropyl]-6-methyl-4-[(1-methylcyclopropyl)amino]furo[2,3-d]pyrimidine-5-carboxamide]", "values": [{"measurement": "IC50", "setting": "[1]", "value": "10 to 100", "unit": "nM"}]}
{"compound": "Cc1oc2ncnc(NC3(C)CC3)c2c1C(=O)N1CCN(c2ccc(F)nc2)CC1", "note": "[Example 282, 5-[4-(6-Fluoropyridin-3-yl)piperazine-1-carbonyl]-6-methyl-N-(1-methylcyclopropyl)furo[2,3-d]pyrimidin-4-amine]", "values": [{"measurement": "IC50", "setting": "[1]", "value": "10 to 100", "unit": "nM"}]}
{"compound": "Cc1cc2c(cn1)CCN(C(=O)c1c(C)oc3ncnc(NC4(C)CC4)c13)C2", "note": "[Example 283, 6-Methyl-5-(7-methyl-1,2,3,4-tetrahydro-2,6-naphthyridine-2-carbonyl)-N-(1-methylcyclopropyl)furo[2,3-d]pyrimidin-4-amine]", "values": [{"measurement": "IC50", "setting": "[1]", "value": "10 to 100", "unit": "nM"}]}
{"compound": "Cc1ccc2c(n1)CCN(C(=O)c1c(C)oc3ncnc(NC4(C)CC4)c13)C2", "note": "[Example 284, 6-Methyl-5-(2-methyl-5,6,7,8-tetrahydro-1,6-naphthyridine-6-carbonyl)-N-(1-methylcyclopropyl)furo[2,3-d]pyrimidin-4-amine]", "values": [{"measurement": "IC50", "setting": "[1]", "value": "10 to 100", "unit": "nM"}]}
{"compound": "Cc1oc2ncnc(NC3(C)CC3)c2c1C(=O)N1CCc2c(ccnc2Cl)C1", "note": "[Example 285, 5-(5-Chloro-1,2,3,4-tetrahydro-2,6-naphthyridine-2-carbonyl)-6-methyl-N-(1-methylcyclopropyl)furo[2,3-d]pyrimidin-4-amine]", "values": [{"measurement": "IC50", "setting": "[1]", "value": "10 to 100", "unit": "nM"}]}
{"compound": "Cc1oc2ncnc(NC3(C)CC3)c2c1C(=O)N1CCc2ccc(Cl)nc2C1", "note": "[Example 286, 5-(2-Chloro-5,6,7,8-tetrahydro-1,7-naphthyridine-7-carbonyl)-6-methyl-N-(1-methylcyclopropyl)furo[2,3-d]pyrimidin-4-amine]", "values": [{"measurement": "IC50", "setting": "[1]", "value": "10 to 100", "unit": "nM"}]}
{"compound": "Cc1oc2ncnc(NC3(C)CC3)c2c1C(=O)N1CCc2nc(Cl)ccc2C1", "note": "[Example 287, 5-(2-Chloro-5,6,7,8-tetrahydro-1,6-naphthyridine-6-carbonyl)-6-methyl-N-(1-methylcyclopropyl)furo[2,3-d]pyrimidin-4-amine]", "values": [{"measurement": "IC50", "setting": "[1]", "value": "10 to 100", "unit": "nM"}]}
{"compound": "Cc1oc2ncnc(NC3(C)CC3)c2c1C(=O)N1CCc2nnc(Cl)cc2C1", "note": "[Example 288, 5-{3-Chloro-5H,6H,7H,8H-pyrido[4,3-c]pyridazine-6-carbonyl}-6-methyl-N-(1-methylcyclopropyl)furo[2,3-d]pyrimidin-4-amine]", "values": [{"measurement": "IC50", "setting": "[1]", "value": "100 to 1000", "unit": "nM"}]}
{"compound": "Cc1oc2ncnc(NC3(C)CC3)c2c1C(=O)N1CCc2nc(Cl)ncc2C1", "note": "[Example 289, 5-{2-Chloro-5H,6H,7H,8H-pyrido[4,3-d]pyrimidine-6-carbonyl}-6-methyl-N-(1-methylcyclopropyl)furo[2,3-d]pyrimidin-4-amine]", "values": [{"measurement": "IC50", "setting": "[1]", "value": "10 to 100", "unit": "nM"}]}
{"compound": "Cc1oc2ncnc(NC3(C)CC3)c2c1C(=O)N1CCc2nc(C3CCOCC3)ccc2C1", "note": "[Example 290, 6-Methyl-N-(1-methylcyclopropyl)-5-[2-(oxan-4-yl)-5,6,7,8-tetrahydro-1,6-naphthyridine-6-carbonyl]furo[2,3-d]pyrimidin-4-amine]", "values": [{"measurement": "IC50", "setting": "[1]", "value": "10 to 100", "unit": "nM"}]}
{"compound": "Cc1oc2ncnc(NC3(C)CC3)c2c1C(=O)NCc1cccnc1F", "note": "[Example 291, N-[(2-Fluoropyridin-3-yl)methyl]-6-methyl-4-[(1-methylcyclopropyl)amino]furo[2,3-d]pyrimidine-5-carboxamide]", "values": [{"measurement": "IC50", "setting": "[1]", "value": "10 to 100", "unit": "nM"}]}
{"compound": "Cc1oc2ncnc(NC3(C)CC3)c2c1C(=O)NCc1ncc(F)cn1", "note": "[Example 292, N-[(5-Fluoropyrimidin-2-yl)methyl]-6-methyl-4-[(1-methylcyclopropyl)amino]furo[2,3-d]pyrimidine-5-carboxamide]", "values": [{"measurement": "IC50", "setting": "[1]", "value": "10 to 100", "unit": "nM"}]}
{"compound": "Cc1oc2ncnc(NC3(C)CC3)c2c1C(=O)NCc1ccc(F)nc1", "note": "[Example 293, N-[(6-Fluoropyridin-3-yl)methyl]-6-methyl-4-[(1-methylcyclopropyl)amino]furo[2,3-d]pyrimidine-5-carboxamide]", "values": [{"measurement": "IC50", "setting": "[1]", "value": "10 to 100", "unit": "nM"}]}
{"compound": "Cc1oc2ncnc(NC3(C)CC3)c2c1C(=O)N1CCc2cnc(C(C)C)nc2C1", "note": "[Example 294, 6-Methyl-N-(1-methylcyclopropyl)-5-[2-(propan-2-yl)-5H,6H,7H,8H-pyrido[3,4-d]pyrimidine-7-carbonyl]furo[2,3-d]pyrimidin-4-amine]", "values": [{"measurement": "IC50", "setting": "[1]", "value": "10 to 100", "unit": "nM"}]}
{"compound": "Cc1oc2ncnc(NC3(C)CC3)c2c1C(=O)N1CCCCC(c2ccc(F)cc2)C1", "note": "(stereo not drawn) [Example 295, 5-[3-(4-Fluorophenyl)azepane-1-carbonyl]-6-methyl-N-(1-methylcyclopropyl)furo[2,3-d]pyrimidin-4-amine]", "values": [{"measurement": "IC50", "setting": "[1]", "value": "10 to 100", "unit": "nM"}]}
{"compound": "Cc1oc2ncnc(NC3(C)CC3)c2c1C(=O)N1CCCC(c2ccc(F)cc2)CC1", "note": "(stereo not drawn) [Example 296, 5-[4-(4-Fluorophenyl)azepane-1-carbonyl]-6-methyl-N-(1-methylcyclopropyl)furo[2,3-d]pyrimidin-4-amine]", "values": [{"measurement": "PDE1b (pIC50)", "setting": "[2]", "value": ">8"}]}
{"compound": "Cc1oc2ncnc(NC3(C)CC3)c2c1C(=O)NC1(CCO)CC1", "note": "[Example 297, N-[1-(2-Hydroxyethyl)cyclopropyl]-6-methyl-4-[(1-methylcyclopropyl)amino]furo[2,3-d]pyrimidine-5-carboxamide]", "values": [{"measurement": "IC50", "setting": "[1]", "value": "10 to 100", "unit": "nM"}]}
{"compound": "COc1ccc(C2(NC(=O)c3c(C)oc4ncnc(NC5(C)CC5)c34)CC2)cc1F", "note": "[Example 298, N-[1-(3-Fluoro-4-methoxyphenyl)cyclopropyl]-6-methyl-4-[(1-methylcyclopropyl)amino]furo[2,3-d]pyrimidine-5-carboxamide]", "values": [{"measurement": "PDE1b (pIC50)", "setting": "[2]", "value": ">8"}]}
{"compound": "Cc1oc2ncnc(NC3(C)CC3)c2c1C(=O)N1CCc2cnc(C3CC3)nc2C1", "note": "[Example 299, 5-{2-Cyclopropyl-5H,6H,7H,8H-pyrido[3,4-d]pyrimidine-7-carbonyl}-6-methyl-N-(1-methylcyclopropyl)furo[2,3-d]pyrimidin-4-amine]", "values": [{"measurement": "IC50", "setting": "[1]", "value": "10 to 100", "unit": "nM"}]}
